Consider 25 compounds from US20130252890A1, “6,7-DIHYDRO-5H-BENZO[7]ANNULENE DERIVATIVES, PROCESS FOR PREPARATION THEREOF, PHARMACEUTICAL PREPARATIONS COMPRISING THEM, AND THE USE THEREOF FOR PRODUCTION OF MEDICAMENTS” (BAYER INTELLECTUAL PROPERTY GMBH, priority 2010, published 2013).

Broadly, the IC50 is the point on the concentration scale where inhibition reaches its midpoint.

SMILES strings stand for the structures.

The test has as its target T1, oestrogen receptor (ER) (Homo sapiens, UniProt P03372).
T1 construct: These MVLN cells express, along with the functional oestrogen receptor (ER), a reporter construct; endogenous in cells; host or cells: MVLN cells (MCF7 derivative carrying a luciferase reporter construct)
T1 sequence (P03372 1-595): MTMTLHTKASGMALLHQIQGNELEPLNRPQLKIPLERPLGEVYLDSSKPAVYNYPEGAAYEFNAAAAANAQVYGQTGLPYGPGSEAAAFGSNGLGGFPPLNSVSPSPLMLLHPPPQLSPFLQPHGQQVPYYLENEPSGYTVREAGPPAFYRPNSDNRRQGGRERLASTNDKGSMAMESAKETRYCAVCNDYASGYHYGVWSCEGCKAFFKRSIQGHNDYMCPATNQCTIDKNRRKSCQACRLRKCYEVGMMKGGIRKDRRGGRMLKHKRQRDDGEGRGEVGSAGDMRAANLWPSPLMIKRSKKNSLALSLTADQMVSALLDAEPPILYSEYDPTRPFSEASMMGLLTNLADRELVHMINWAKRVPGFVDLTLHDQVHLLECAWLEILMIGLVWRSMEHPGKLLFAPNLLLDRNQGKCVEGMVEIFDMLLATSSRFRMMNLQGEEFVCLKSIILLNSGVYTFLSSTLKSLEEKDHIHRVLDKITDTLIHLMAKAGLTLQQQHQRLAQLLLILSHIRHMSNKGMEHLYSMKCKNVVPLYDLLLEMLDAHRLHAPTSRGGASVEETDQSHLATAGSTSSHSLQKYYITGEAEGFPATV
Kind of test: Anti-oestrogenic action in MVLN cells (inhibition of estradiol-induced luciferase). The conditions noted are these: inhibition of estradiol-induced luciferase signal, value of Ex. 44 is a mean value, read-out: Antioestrogenic action in vitro: MVLN transactivation antagonism IC50. The test is classed as cell-based. An outline of the steps:
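MVLN cells, MCF7 breast cancer derivatives carrying functional ER plus an ER-activated luciferase reporter, were treated with compounds in the presence of estradiol. Anti-oestrogenic activity taken as inhibition of the estradiol-induced luciferase signal.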

Consider `O=S(=O)(CCCN(CCO)CCCCCCC1=C(c2ccc(F)cc2)CCCc2cc(O)ccc21)CCCC(F)(F)F` [Example 97, 8-(4-Fluorophenyl)-9-{6-[(2-hydroxyethyl){3-[(4,4,4-trifluorobutyl)sulphonyl]propyl}amino]hexyl}-6,7-dihydro-5H-benzo[7]annulen-3-ol], for which the IC50 came out at 7 nM.

In the case of `C[C@@H](O)CN(CCCCCCC1=C(c2ccc(F)cc2)CCCc2cc(O)ccc21)CCCCS(=O)(=O)CCCC(F)(F)F` [Example 98], the IC50 was 6 nM.

Consider `CN(CCCCCCC1=C(c2ccc(F)cc2)CCCc2cc(O)c(F)cc21)CCCS(=O)(=O)CCCC(F)(F)C(F)(F)F` [Example 99, 2-Fluoro-8-(4-fluorophenyl)-9-[6-(methyl{3-[(4,4,5,5,5-pentafluoropentyl)sulphonyl]propyl}amino)hexyl]-6,7-dihydro-5H-benzo[7]annulen-3-ol], for which the concentration for half-maximal inhibition (IC50) was 15 nM.

With `O=S(=O)(CCCN(CCO)CCCCCCC1=C(c2ccc(F)cc2)CCCc2cc(O)c(F)cc21)CCCC(F)(F)C(F)(F)F` [Example 100, 2-Fluoro-8-(4-fluorophenyl)-9-{6-[(2-hydroxyethyl){3-[(4,4,5,5,5-pentafluoropentyl)sulphonyl]propyl}amino]hexyl}-6,7-dihydro-5H-benzo[7]annulen-3-ol], the IC50 worked out at 9 nM.

As for `CN(CCCCCCC1=C(c2ccc(F)cc2)CCCc2cc(O)c(F)cc21)CCCCS(=O)(=O)CCCC(F)(F)F` [Example 101, 2-Fluoro-8-(4-fluorophenyl)-9-[6-(methyl{4-[(4,4,4-trifluorobutyl)sulphonyl]butyl}amino)hexyl]-6,7-dihydro-5H-benzo[7]annulen-3-ol], the IC50 was determined as 6 nM.

With `CN(CCCCCCC1=C(c2ccc(F)cc2)CCCc2cc(O)c(F)cc21)CCCS(=O)(=O)CCCCC(F)(F)F` [Example 102, 2-Fluoro-8-(4-fluorophenyl)-9-[6-(methyl{3-[(5,5,5-trifluoropentyl)sulphonyl]propyl}amino)hexyl]-6,7-dihydro-5H-benzo[7]annulen-3-ol], the IC50 was 10 nM.

Regarding `O=S(=O)(CCCN(CCO)CCCCCCC1=C(c2ccc(F)cc2)CCCc2cc(O)c(F)cc21)CCCC(F)(F)F` [Example 103, 2-Fluoro-8-(4-fluorophenyl)-9-{6-[(2-hydroxyethyl){3-[(4,4,4-trifluorobutyl)sulphonyl]propyl}amino]hexyl}-6,7-dihydro-5H-benzo[7]annulen-3-ol], the IC50 came to 5 nM.

Take `O=S(=O)(CCCCN(CCO)CCCCCCC1=C(c2ccc(F)cc2)CCCc2cc(O)c(F)cc21)CCCC(F)(F)F` [Example 104, 2-Fluoro-8-(4-fluorophenyl)-9-{6-[(2-hydroxyethyl){4-[(4,4,4-trifluorobutyl)sulphonyl]butyl}amino]hexyl}-6,7-dihydro-5H-benzo[7]annulen-3-ol]: the IC50 was found to be 7 nM.

As for `CN(CCCCCCC1=C(c2ccc(F)cc2)CCCc2cc(O)c(F)cc21)CCCCS(=O)(=O)CCCC(F)(F)C(F)(F)F` [Example 105, 2-Fluoro-8-(4-fluorophenyl)-9-[6-(methyl{4-[(4,4,5,5,5-pentafluoropentyl)sulphonyl]butyl}amino)hexyl]-6,7-dihydro-5H-benzo[7]annulen-3-ol], the IC50 was determined as 12 nM.

Regarding `CN(CCCCCCC1=C(c2ccc(F)cc2)CCCc2cc(O)c(F)cc21)CCCCS(=O)(=O)CCC(F)(F)F` [Example 106, 2-Fluoro-8-(4-fluorophenyl)-9-[6-(methyl{4-[(3,3,3-trifluoropropyl)sulphonyl]butyl}amino)hexyl]-6,7-dihydro-5H-benzo[7]annulen-3-ol], the half-maximal inhibitory concentration (IC50) was 10 nM.

For `CN(CCCCCCC1=C(c2ccc(F)cc2)CCCc2cc(O)c(F)cc21)CCCCCS(=O)(=O)CCC(F)(F)F` [Example 107, 2-Fluoro-8-(4-fluorophenyl)-9-[6-(methyl{5-[(3,3,3-trifluoropropyl)sulphonyl]pentyl}amino)hexyl]-6,7-dihydro-5H-benzo[7]annulen-3-ol], the IC50 was 123 nM.

For `O=S(=O)(CCCN(CCO)CCCCCCC1=C(c2ccc(F)cc2)CCCc2cc(O)ccc21)CCC(F)(C(F)(F)F)C(F)(F)F` [Example 108, 8-(4-Fluorophenyl)-9-{6-[(2-hydroxyethyl)(3-{[3,4,4,4-tetrafluoro-3-(trifluoromethyl)butyl]sulphonyl}propyl)amino]hexyl}-6,7-dihydro-5H-benzo[7]annulen-3-ol], the IC50 was 69 nM.

As to `O=S(=O)(CCCCN(CCO)CCCCCCC1=C(c2ccc(F)cc2)CCCc2cc(O)ccc21)CCC(F)(C(F)(F)F)C(F)(F)F` [Example 109, 8-(4-Fluorophenyl)-9-{6-[(2-hydroxyethyl)(4-{[3,4,4,4-tetrafluoro-3-(trifluoromethyl)butyl]sulphonyl}butyl)amino]hexyl}-6,7-dihydro-5H-benzo[7]annulen-3-ol], the IC50 was determined as 26 nM.

As for `CN(CCCCCCC1=C(c2ccc(F)cc2)CCCc2cc(O)ccc21)CCCS(=O)(=O)CCC(F)(C(F)(F)F)C(F)(F)F` [Example 110, 8-(4-Fluorophenyl)-9-{6-[methyl(3-{[3,4,4,4-tetrafluoro-3-(trifluoromethyl)butyl]sulphonyl}propyl)amino]hexyl}-6,7-dihydro-5H-benzo[7]annulen-3-ol], the IC50 came to 73 nM.

For `CN(CCCCCCC1=C(c2ccc(F)cc2)CCCc2cc(O)ccc21)CCCCS(=O)(=O)CCC(F)(C(F)(F)F)C(F)(F)F` [Example 111, 8-(4-Fluorophenyl)-9-{6-[methyl(4-{[3,4,4,4-tetrafluoro-3-(trifluoromethyl)butyl]sulphonyl}butyl)amino]hexyl}-6,7-dihydro-5H-benzo[7]annulen-3-ol], the IC50 stood at 33 nM.

As for `O=S(=O)(CCCCC(F)(F)F)CCCNCCCCCCC1=C(c2ccc(F)cc2)CCCc2cc(O)ccc21` [Example 112, 8-(4-Fluorophenyl)-9-[6-({3-[(5,5,5-trifluoropentyl)sulphonyl]propyl}amino)hexyl]-6,7-dihydro-5H-benzo[7]annulen-3-ol], the 50% inhibitory concentration (IC50) came to 7 nM.

For `O=S(=O)(CCCNCCCCCCC1=C(c2ccc(F)cc2)CCCc2cc(O)ccc21)CCCC(F)(F)C(F)(F)F` [Example 113, 8-(4-Fluorophenyl)-9-[6-({3-[(4,4,5,5,5-pentafluoropentyl)sulphonyl]propyl}amino)hexyl]-6,7-dihydro-5H-benzo[7]annulen-3-ol], the IC50 is 18 nM.

With `CC(C)(O)CN(CCCCCCC1=C(c2ccc(F)cc2)CCCc2cc(O)ccc21)CCCS(=O)(=O)CCC(F)(F)F` [Example 119, 8-(4-fluorophenyl)-9-{6-[(2-hydroxy-2-methylpropyl){3-[(3,3,3-trifluoropropyl)sulphonyl]propyl}amino]hexyl}-6,7-dihydro-5H-benzo[7]annulen-3-ol], the IC50 is 80 nM.

For the compound `CC(C)(O)CN(CCCCCCC1=C(c2ccc(F)cc2)CCCc2cc(O)ccc21)CCC[S+]([O-])CCC(F)(F)F` (stereo not shown) [Example 120, 8-(4-fluorophenyl)-9-{6-[(2-hydroxy-2-methylpropyl){3-[(3,3,3-trifluoropropyl)sulphinyl]propyl}amino)hexyl}-6,7-dihydro-5H-benzo[7]annulen-3-ol], the IC50 came to 56 nM.

`CN(CCCCCCC1=C(c2ccc(F)cc2)CCCc2cc(O)ccc21)CCCS(=O)(=O)C1CCC(F)(F)CC1` [Example 121, 9-{6-[{3-[(4,4-difluorocyclohexyl)sulphonyl]propyl}(methyl)amino]hexyl}-8-(4-fluorophenyl)-6,7-dihydro-5H-benzo[7]annulen-3-ol]: the IC50 was 41 nM.

For `CN(CCCCCCC1=C(c2ccccc2F)CCCc2cc(O)ccc21)CCCS(=O)(=O)CCCC(F)(F)C(F)(F)F` [Example 126], the IC50 was determined as 9 nM.

As for `CN(CCCCCC1=C(c2ccc(F)cc2)CCCc2cc(O)ccc21)CCCS(=O)(=O)CCCC(F)(F)C(F)(F)F` [Example 127], the IC50 turned out to be 69 nM.

Regarding `CN(CCCCCCC1=C(c2ccc(F)cc2F)CCCc2cc(O)ccc21)CCCS(=O)(=O)CCCC(F)(F)C(F)(F)F` [Example 128, 8-(2,4-Difluorophenyl)-9-[6-(methyl{3-[(4,4,5,5,5-pentafluoropentyl)sulphonyl]propyl}amino)hexyl]-6,7-dihydro-5H-benzo[7]annulen-3-ol], the IC50 worked out at 6 nM.

As for `CN(CCCCCCC1=C(c2ccc(F)cc2F)CCCc2cc(O)ccc21)CCCS(=O)(=O)CCCCC(F)(F)F` [Example 129, 8-(2,4-Difluorophenyl)-9-[6-(methyl{3-[(5,5,5-trifluoropentyl)sulphonyl]propyl}amino)hexyl]-6,7-dihydro-5H-benzo[7]annulen-3-ol], the IC50 came to 5 nM.

As for `CN(CCCCCCC1=C(c2ccc(F)cc2F)CCCc2cc(O)ccc21)CCCS(=O)(=O)CCC(F)(F)F` [Example 130, 8-(2,4-Difluorophenyl)-9-[6-(methyl{3-[(3,3,3-trifluoropropyl)sulphonyl]propyl}amino)hexyl]-6,7-dihydro-5H-benzo[7]annulen-3-ol], the IC50 amounted to 16 nM.
